Assay results from US10364238B2, “N-((het) arylmethyl)-heteroaryl-carboxamides compounds as plasma kallikrein inhibitors” (KALVISTA PHARMACEUTICALS LIMITED, priority 2014, dated 2019).

Tests used:
[1] = molecular target: Human KLK1 (Homo sapiens (Human), UniProt P06870); assay: Determination of the IC50 for KLK1; format: biochemical; details: 25° C., fluorogenic substrate H-DVal-Leu-Arg-AFC
Method: Determination of the IC50 for KLK1
(§1) Human KLK1 (Callbiochem) was incubated at 25° C. with the fluorogenic substrate H-DVal-Leu-Arg-AFC and various concentrations of the test compound. Residual enzyme activity (initial rate of reaction) was determined by measuring the change in […] at 410 nm and the IC50 value for the test compound was determined.

[2] = molecular target: Human FXIa (Homo sapiens (Human), UniProt P03951); assay: Determination of the % inhibition for FXIa; format: biochemical; details: 40 μM test compound, 25° C., substrate Z-Gly-Pro-Arg-AFC
Method: Determination of the % Inhibition for FXIa
Human FXIa (Enzyme Research Laboratories) was incubated at 25° C. with the fluorogenic substrate Z-Gly-Pro-Arg-AFC and 40 μM of the test compound. Residual enzyme activity (initial rate of reaction) was determined by measuring the change in […].

[3] = molecular target: Human plasma kallikrein (Homo sapiens (Human), UniProt P03952); assay: Determination of the IC50 for plasma kallikrein; format: biochemical; details: 25° C., fluorogenic substrate H-DPro-Phe-Arg-AFC; read-out: IC50 (human PKaI)
Method: Determination of the IC50 for Plasma Kallikrein
as §1, with “plasma kallikrein (Protogen)” for “KLK1 (Callbiochem)”, “H-DPro-Phe-Arg-AFC” for “H-DVal-Leu-Arg-AFC”

[4] = Pharmacokinetics following a single oral dose in rats; format: in vivo; details: rat, nominal 10 mg/kg, male Sprague-Dawley rats, plasma
Method: Pharmacokinetic studies of the compounds in Table 15 were performed to assess the pharmacokinetics following a single oral dose in male Sprague-Dawley rats. Two rats were given a single po dose of 5 mL/kg of a nominal 2 mg/mL (10 mg/kg) composition of test compound in vehicle. Following dosing, blood samples were collected over a period of 24 hours. Sample times were 5, 15 and 30 minutes then 1, 2, 4, 6, 8 and 12 hours. Following collection, blood samples were centrifuged and the plasma fraction analysed for concentration of test compound by LCMS.

Chain of Human FXIa (P03951 388-625): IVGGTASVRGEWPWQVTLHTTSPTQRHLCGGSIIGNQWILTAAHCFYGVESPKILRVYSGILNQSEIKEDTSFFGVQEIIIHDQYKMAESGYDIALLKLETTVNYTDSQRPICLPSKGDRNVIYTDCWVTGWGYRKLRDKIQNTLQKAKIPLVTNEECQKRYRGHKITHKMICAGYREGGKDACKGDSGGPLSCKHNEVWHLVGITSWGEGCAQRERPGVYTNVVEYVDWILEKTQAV
Chain of Human FXIa (P03951 19-387 partner): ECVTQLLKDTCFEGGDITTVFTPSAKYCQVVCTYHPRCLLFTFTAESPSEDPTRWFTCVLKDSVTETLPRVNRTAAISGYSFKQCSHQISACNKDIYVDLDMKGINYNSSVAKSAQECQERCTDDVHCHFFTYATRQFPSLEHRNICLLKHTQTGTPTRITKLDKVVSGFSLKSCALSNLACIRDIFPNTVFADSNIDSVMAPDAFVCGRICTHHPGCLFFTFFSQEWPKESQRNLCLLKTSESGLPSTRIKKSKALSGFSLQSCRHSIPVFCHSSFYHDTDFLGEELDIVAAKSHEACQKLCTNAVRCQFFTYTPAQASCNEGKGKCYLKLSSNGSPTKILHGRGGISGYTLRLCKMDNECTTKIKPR
Chain of Human plasma kallikrein (P03952 391-638): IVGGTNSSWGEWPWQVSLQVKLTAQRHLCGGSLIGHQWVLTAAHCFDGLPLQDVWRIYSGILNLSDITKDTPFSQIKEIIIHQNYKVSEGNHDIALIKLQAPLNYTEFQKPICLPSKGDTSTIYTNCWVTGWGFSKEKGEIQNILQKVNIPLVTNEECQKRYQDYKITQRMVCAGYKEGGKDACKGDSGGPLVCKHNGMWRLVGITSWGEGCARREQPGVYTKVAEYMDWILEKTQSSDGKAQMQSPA
Chain of Human plasma kallikrein (P03952 20-390 partner): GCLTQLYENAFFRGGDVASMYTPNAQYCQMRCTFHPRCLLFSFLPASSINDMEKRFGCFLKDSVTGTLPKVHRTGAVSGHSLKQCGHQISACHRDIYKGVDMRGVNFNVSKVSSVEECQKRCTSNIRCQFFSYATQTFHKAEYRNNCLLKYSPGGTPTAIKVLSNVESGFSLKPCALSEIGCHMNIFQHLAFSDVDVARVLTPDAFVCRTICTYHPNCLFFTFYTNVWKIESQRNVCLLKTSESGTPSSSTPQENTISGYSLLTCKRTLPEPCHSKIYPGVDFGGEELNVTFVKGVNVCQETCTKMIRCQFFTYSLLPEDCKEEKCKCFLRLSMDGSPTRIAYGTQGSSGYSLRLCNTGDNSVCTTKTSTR
Chain of Human KLK1 (P06870 25-262): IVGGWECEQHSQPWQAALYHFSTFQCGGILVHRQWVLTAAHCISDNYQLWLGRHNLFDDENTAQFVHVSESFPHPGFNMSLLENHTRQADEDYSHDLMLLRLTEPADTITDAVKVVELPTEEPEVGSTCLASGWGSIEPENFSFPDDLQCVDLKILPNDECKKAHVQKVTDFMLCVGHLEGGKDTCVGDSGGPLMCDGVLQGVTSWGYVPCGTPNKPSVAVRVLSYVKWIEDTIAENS

Structure (SMILES)	IC50 [1] [nM]	inhibition at 40 µM [2] [%]	IC50 [3] [nM]	Cmax [4] [ng/mL]	Tmax [4] [min]
COCc1nn(Cc2ccc(Cn3ccccc3=O)cc2)cc1C(=O)NCc1cccc(OC)c1F [Example 53, N-[(2-fluoro-3-methoxyphenyl)methyl]-3-(methoxymethyl)-1-({4-[(2-oxopyridin-1-yl)methyl]phenyl}methyl)pyrazole-4-carboxamide]	> 10000		20.2	1030	15
COCc1nn(Cc2ccc(Cn3ccccc3=O)cc2)cc1C(=O)NCc1c(C#N)ccc(OC)c1F [Example 77, N-[(6-cyano-2-fluoro-3-methoxyphenyl)methyl]-3-(methoxymethyl)-1-({4-[(2-oxopyridin-1-yl)methyl]phenyl}methyl)pyrazole-4-carboxamide]		28	0.6	397	30
COCc1nn(Cc2ccc(Cn3ccccc3=O)cc2)cc1C(=O)NCc1cc(F)cc(OC)c1 [Example 95, N-[(3-fluoro-5-methoxyphenyl)methyl]-3-(methoxymethyl)-1-({4-[(2-oxopyridin-1-yl)methyl]phenyl}methyl)pyrazole-4-carboxamide]	> 40000	1	308		
COCc1nn(Cc2ccc(Cn3ccc(C)cc3=O)cc2)cc1C(=O)NCc1c(F)ccc(OC)c1F [Example 106, N-[(2,6-difluoro-3-methoxyphenyl)methyl]-3-(methoxymethyl)-1-({4-[(4-methyl-2-oxopyridin-1-yl)methyl]phenyl}methyl)pyrazole-4-carboxamide]	> 10000	2	140		
CCOc1ccn(Cc2ccc(Cn3cc(C(=O)NCc4c(F)ccc(OC)c4F)c(COC)n3)cc2)c(=O)c1 [Example 109, N-[(2,6-difluoro-3-methoxyphenyl)methyl]-1-({4-[(4-ethoxy-2-oxopyridin-1-yl)methyl]phenyl}methyl)-3-(methoxymethyl)pyrazole-4-carboxamide]	> 10000	2	2980		
COc1cccc(CNC(=O)c2cn(Cc3ccc(N4CCCC4)nc3)nc2C(F)(F)F)c1F [Example 126, N-[(2-fluoro-3-methoxyphenyl)methyl]-1-{[6-(pyrrolidin-1-yl)pyridin-3-yl]methyl}-3-(trifluoromethyl)pyrazole-4-carboxamide]	> 10000	10	742		
CCc1cccc(CNC(=O)c2cn(Cc3ccc(Cn4ccccc4=O)cc3)nc2COC)c1F [Example 132, N-[(3-ethyl-2-fluorophenyl)methyl]-3-(methoxymethyl)-1-({4-[(2-oxopyridin-1-yl)methyl]phenyl}methyl)pyrazole-4-carboxamide]	> 40000	0	135		
CN1CC(CNC(=O)c2cn(Cc3ccc(Cn4ccccc4=O)cc3)nc2N)Oc2cc(Cl)ccc21 (stereo not drawn) [Example 139, 3-amino-N-[(7-chloro-4-methyl-2,3-dihydro-1,4-benzoxazin-2-yl)methyl]-1-({4-[(2-oxopyridin-1-yl)methyl]phenyl}methyl)pyrazole-4-carboxamide]	> 40000	33	64.7		
Nc1nn(Cc2ccc(Cn3ccccc3=O)cc2)cc1C(=O)NCC1CNc2ccc(Cl)cc2O1 (stereo not drawn) [Example 140, 3-amino-N-[(7-chloro-3,4-dihydro-2H-1,4-benzoxazin-2-yl)methyl]-1-({4-[(2-oxopyridin-1-yl)methyl]phenyl}methyl)pyrazole-4-carboxamide]	> 40000	9	10.6		

Other lines, results leading:

IC50 [1] [nM]	inhibition at 40 µM [2] [%]	IC50 [3] [nM]	Cmax [4] [ng/mL]	Tmax [4] [min]	Structure (SMILES)
> 10000	8	8.7	351	60	COc1cccc(CNC(=O)c2cn(Cc3ccc(Cn4ccccc4=O)cc3)nc2N)c1F [Example 2, 3-Amino-1-[4-(2-oxo-2H-pyridin-1-ylmethyl)-benzyl]-1H-pyrazole-4-carboxylic acid 2-fluoro-3-methoxy-benzylamide]
> 40000	0		1530	180	COCc1nn(Cc2ccc(Cn3ccccc3=O)cc2)cc1C(=O)NCc1nccc(OC)c1F [Example 41, N-[(3-fluoro-4-methoxypyridin-2-yl)methyl]-3-(methoxymethyl)-1-({4-[(2-oxopyridin-1-yl)methyl]phenyl}methyl)pyrazole-4-carboxamide]
> 40000		48.9	101	15	O=C(NCc1c(F)cccc1C(F)(F)F)c1cn(Cc2ccc(Cn3ccccc3=O)cc2)nc1C(F)(F)F [Example 51, N-{[2-fluoro-6-(trifluoromethyl)phenyl]methyl}-1-({4-[(2-oxopyridin-1-yl)methyl]phenyl}methyl)-3-(trifluoromethyl)pyrazole-4-carboxamide]
> 10000	4	16			COCc1nn(Cc2ccc(Cn3ccccc3=O)cc2)cc1C(=O)NCc1c(F)cccc1OC(F)F [Example 92, N-{[2-(difluoromethoxy)-6-fluorophenyl]methyl}-3-(methoxymethyl)-1-({4-[(2-oxopyridin-1-yl)methyl]phenyl}methyl)pyrazole-4-carboxamide]
> 10000	0	780			COCc1nn(Cc2ccc(Cn3ccccc3=O)cc2)cc1C(=O)NCc1cc(F)ccc1F [Example 94, N-[(2,5-difluorophenyl)methyl]-3-(methoxymethyl)-1-({4-[(2-oxopyridin-1-yl)methyl]phenyl}methyl)pyrazole-4-carboxamide]
> 40000	0	75			COCc1nn(Cc2ccc(Cn3ccccc3=O)cc2)cc1C(=O)NCc1cc(F)cc(OC)c1F [Example 96, N-[(2,5-difluoro-3-methoxyphenyl)methyl]-3-(methoxymethyl)-1-({4-[(2-oxopyridin-1-yl)methyl]phenyl}methyl)pyrazole-4-carboxamide]
> 10000	0	153			COCc1nn(Cc2ccc(Cn3ccccc3=O)cc2)cc1C(=O)NCc1c(C)cccc1F [Example 97, N-[(2-fluoro-6-methylphenyl)methyl]-3-(methoxymethyl)-1-({4-[(2-oxopyridin-1-yl)methyl]phenyl}methyl)pyrazole-4-carboxamide]
> 10000	0	691			COCc1nn(Cc2ccc(Cn3ccncc3=O)cc2)cc1C(=O)NCc1cccc(OC)c1F [Example 104, N-[(2-fluoro-3-methoxyphenyl)methyl]-3-(methoxymethyl)-1-({4-[(2-oxopyrazin-1-yl)methyl]phenyl}methyl)pyrazole-4-carboxamide]
> 10000	0	43.9			COc1cccc(CNC(=O)c2cn(Cc3ccc(Cn4ccccc4=O)cc3)c(C)n2)c1F [Example 121, N-[(2-fluoro-3-methoxyphenyl)methyl]-2-methyl-1-({4-[(2-oxopyridin-1-yl)methyl]phenyl}methyl)imidazole-4-carboxamide]
> 10000	0	191			COc1cccc(CNC(=O)c2cn(Cc3ccc(Cn4ccccc4=O)cc3)c(C(F)(F)F)n2)c1F [Example 124, N-[(2-fluoro-3-methoxyphenyl)methyl]-1-({4-[(2-oxopyrldin-1-yl)methyl]phenyl}methyl)-2-(trifluoromethyl)imidazole-4-carboxamide]
> 40000	0	174			Nc1nn(Cc2ccc(Cn3ccccc3=O)cc2)cc1C(=O)NCc1cccc(O)c1F [Example 130, 3-amino-N-[(2-fluoro-3-hydroxyphenyl)methyl]-1-({4-[(2-oxopyridin-1-yl)methyl]phenyl}methyl)pyrazole-4-carboxamide]
> 10000	0	1510			COCc1nn(Cc2ccc(Cn3ccccc3=O)cc2)cc1C(=O)NCc1ccccc1C(=O)OC [Example 131, methyl 2-({[3-(methoxymethyl)-1-({4-[(2-oxopyridin-1-yl)methyl]phenyl}methyl)pyrazol-4-yl]formamido}methyl)benzoate]
> 10000	1	90.2			COCc1nn(Cc2ccc(Cn3ccccc3=O)cc2)cc1C(=O)NCc1cccc(OC)c1 [Example 133, 3-(methoxymethyl)-N-[(3-methoxyphenyl)methyl]-1-({4-[(2-oxopyridin-1-yl)methyl]phenyl}methyl)pyrazole-4-carboxamide]
